Common to all, as to assay: Growth inhibitory activity of compounds on BaF3 cell lines stably transfected with kinase (MTS, 48 h)
What all share (assay type): cell-based

The target in experiment [1] is T1, various mutants of kinase EGFR (BaF3 cell lines stably transfected with kinase) (Homo sapiens, UniProt P00533, T790M/C797S, form not given).
T1 construct: other: BaF3 cells stably transfected with EGFR Δ19Del/T790M/C797S; MTS, 48; other: BaF3 cell line stably transfected with EGFR Δ19Del/T790M/C7
The settings on record: BaF3 cells stably transfected with EGFR Δ19Del/T790M/C797S, read-out: IC50, growth inhibition, Δ19Del/T790M/C797S. As to the method:
(§1) The activity of compounds against various mutants of kinase EGFR was evaluated by their effect of inhibiting growth of BaF3 cell lines stably transfected with kinase. The specific test method was given as follows:
(§2) 1) Culture medium: DMEM (Dulbecco’s modified eagle medium) or RPMI 1640 (containing 10% fetal bovine serum, 100 µg/mL ampicillin, 100 µg/mL streptomycin).
(§3) 2) Reagent: MTS reaction solution (containing 2 mg/mL of MTS [3-(4,5-dimethylthiazol-2-yl)-5-(3-carboxymethoxyphenyl)-2-(4-sulfophenyl)-2H-tetrazoliu m, inner Salt]; 100 µg/mL of PES ([…])).
(§4) 3) Compound test: cells were incubated into a 96-well culture plate, the volume of cytosol was 90 µL, and then 10 µL of the compound at each gradient concentration was added. That is, the highest concentration was 10 µM, which was diluted stepwise by ⅓, and 8 concentration points were set in total; 0.1% DMSO (dimethyl sulfoxide) was contained in the system. The cell plate with uniformly mixed compound was cultured in a cell culture incubator (37° C.; 5% CO2) for 48 h, then 20 µL of MTS reaction solution was added, uniformly mixed and incubated in the cell culture incubator (37° C.; 5% CO2) for 1-4 h. OD values at 490 nm were measured by a microplate reader (VARIOSKAN FLASH, Thermo). Two parallels were set in each group of experiments, with 0.1% (a final concentration) DMSO as a negative control, and a culture medium without cells and compounds as a blank control. The cell growth inhibition rate was calculated by the following formula: […]
(§5) 4) IC50 calculation: The semi-inhibitory concentration of the compounds acting on cells was calculated using GradPad Prism 5 software according to the measured cell growth inhibition rate.

Experiment [2] deals with T2, various mutants of kinase EGFR (BaF3 cell lines stably transfected with kinase) (Homo sapiens, UniProt P00533, C797S/L858R/T790M).
T2 construct: expressed in transfected cells; host or cells: BaF3
T2 sequence (P00533 25-1210 T790M/C797S/L858R): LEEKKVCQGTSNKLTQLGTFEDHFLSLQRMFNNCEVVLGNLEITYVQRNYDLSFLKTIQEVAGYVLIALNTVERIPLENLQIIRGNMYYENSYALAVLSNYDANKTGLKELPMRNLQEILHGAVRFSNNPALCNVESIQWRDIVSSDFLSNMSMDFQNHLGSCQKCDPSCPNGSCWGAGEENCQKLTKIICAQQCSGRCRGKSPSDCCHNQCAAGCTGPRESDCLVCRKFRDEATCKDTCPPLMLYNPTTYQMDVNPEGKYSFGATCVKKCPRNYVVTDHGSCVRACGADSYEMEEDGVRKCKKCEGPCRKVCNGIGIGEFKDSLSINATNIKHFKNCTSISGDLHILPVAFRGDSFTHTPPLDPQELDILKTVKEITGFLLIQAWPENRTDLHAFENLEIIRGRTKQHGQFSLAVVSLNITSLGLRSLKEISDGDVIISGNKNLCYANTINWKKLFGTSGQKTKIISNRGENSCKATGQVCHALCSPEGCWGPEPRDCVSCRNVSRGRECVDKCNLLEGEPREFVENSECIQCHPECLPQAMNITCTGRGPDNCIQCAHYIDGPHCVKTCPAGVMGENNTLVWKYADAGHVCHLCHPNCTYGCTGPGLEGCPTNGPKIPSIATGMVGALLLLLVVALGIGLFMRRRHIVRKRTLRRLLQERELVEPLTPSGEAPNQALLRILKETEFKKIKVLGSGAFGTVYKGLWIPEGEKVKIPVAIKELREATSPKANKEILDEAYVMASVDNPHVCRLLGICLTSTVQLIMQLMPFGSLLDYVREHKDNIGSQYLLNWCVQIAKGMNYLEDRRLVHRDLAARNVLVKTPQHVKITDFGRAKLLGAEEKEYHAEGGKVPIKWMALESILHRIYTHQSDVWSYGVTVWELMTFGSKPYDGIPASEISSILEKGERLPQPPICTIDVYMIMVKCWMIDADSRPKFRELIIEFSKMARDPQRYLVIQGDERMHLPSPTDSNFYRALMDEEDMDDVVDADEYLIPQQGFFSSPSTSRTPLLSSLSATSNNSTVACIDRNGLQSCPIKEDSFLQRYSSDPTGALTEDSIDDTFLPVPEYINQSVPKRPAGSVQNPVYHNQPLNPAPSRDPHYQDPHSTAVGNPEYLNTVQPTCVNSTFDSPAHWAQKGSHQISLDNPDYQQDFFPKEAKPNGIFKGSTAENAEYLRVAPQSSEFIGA
Particulars: BaF3 cells stably transfected with EGFR L858R/T790M/C797S, read-out: IC50, growth inhibition, L858R/T790M/C797S. As to the method:
as §1, §2, §3, §4, §5

The target of experiment [3] is T3, various mutants of kinase EGFR (BaF3 cell lines stably transfected with kinase) (Homo sapiens, UniProt P00533, L858R/T790M).
T3 construct: expressed in transfected cells; host or cells: BaF3
T3 sequence (P00533 25-1210 T790M/L858R): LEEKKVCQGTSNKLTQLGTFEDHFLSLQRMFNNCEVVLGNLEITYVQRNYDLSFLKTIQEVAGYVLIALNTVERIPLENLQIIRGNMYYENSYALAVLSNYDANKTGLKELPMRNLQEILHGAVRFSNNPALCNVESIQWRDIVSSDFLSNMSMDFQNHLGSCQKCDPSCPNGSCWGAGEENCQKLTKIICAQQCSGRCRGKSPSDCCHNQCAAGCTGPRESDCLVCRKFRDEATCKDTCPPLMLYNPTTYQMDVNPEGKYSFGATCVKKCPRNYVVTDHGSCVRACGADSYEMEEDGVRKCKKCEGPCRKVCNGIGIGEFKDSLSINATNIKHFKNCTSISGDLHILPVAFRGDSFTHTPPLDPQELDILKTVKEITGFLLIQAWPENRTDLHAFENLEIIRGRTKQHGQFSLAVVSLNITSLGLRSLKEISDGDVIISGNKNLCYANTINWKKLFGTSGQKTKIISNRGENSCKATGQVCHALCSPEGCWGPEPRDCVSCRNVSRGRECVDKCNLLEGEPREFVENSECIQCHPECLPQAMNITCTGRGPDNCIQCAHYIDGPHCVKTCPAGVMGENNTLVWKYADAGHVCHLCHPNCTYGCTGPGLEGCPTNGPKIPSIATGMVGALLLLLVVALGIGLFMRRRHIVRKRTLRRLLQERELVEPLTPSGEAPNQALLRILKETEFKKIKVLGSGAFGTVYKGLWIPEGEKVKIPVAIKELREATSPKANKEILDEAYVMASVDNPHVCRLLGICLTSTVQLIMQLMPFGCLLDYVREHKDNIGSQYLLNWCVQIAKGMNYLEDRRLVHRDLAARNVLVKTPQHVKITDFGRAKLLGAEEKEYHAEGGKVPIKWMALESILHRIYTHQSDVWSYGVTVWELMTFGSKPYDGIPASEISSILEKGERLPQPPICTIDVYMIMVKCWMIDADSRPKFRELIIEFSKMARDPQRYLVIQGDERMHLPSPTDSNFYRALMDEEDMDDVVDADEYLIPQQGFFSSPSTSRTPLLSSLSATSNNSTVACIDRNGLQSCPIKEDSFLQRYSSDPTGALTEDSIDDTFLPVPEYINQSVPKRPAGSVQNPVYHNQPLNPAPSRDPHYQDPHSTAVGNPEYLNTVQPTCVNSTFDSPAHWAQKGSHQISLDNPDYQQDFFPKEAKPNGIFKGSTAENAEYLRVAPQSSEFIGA
The settings on record: BaF3 cells stably transfected with EGFR L858R/T790M, read-out: IC50, growth inhibition, L858R/T790M. The method, then: as §1, §2, §3, §4, §5

For experiment [4], the target named is T4, various mutants of kinase EGFR (BaF3 cell lines stably transfected with kinase) (Homo sapiens, UniProt P00533, L858R).
T4 construct: expressed in transfected cells; host or cells: BaF3
The settings on record: BaF3 cells stably transfected with EGFR L858R, read-out: IC50, growth inhibition, L858R. As to the method: as §1, §2, §3, §4, §5

Experiment [5] concerns the target T5, various mutants of kinase EGFR (BaF3 cell lines stably transfected with kinase) (Homo sapiens, UniProt P00533).
T5 construct: other: BaF3 cells stably transfected with EGFR Δ19Del; MTS, 48 h; other: BaF3 cell line stably transfected with EGFR Δ19Del
Particulars: BaF3 cells stably transfected with EGFR Δ19Del, read-out: IC50, growth inhibition, Δ19Del. The method, then: as §1, §2, §3, §4, §5

The target of experiment [6] is T6, various mutants of kinase EGFR (BaF3 cell lines stably transfected with kinase) (Homo sapiens, UniProt P00533, T790M, form not given).
T6 construct: other: BaF3 cells stably transfected with EGFR Δ19Del/T790M; MTS, 48 h; other: BaF3 cell line stably transfected with EGFR Δ19Del/T790M; MTS, 48
T6 sequence (P00533 with tags, fused parts or gaps DEL746-750/T790M, form open): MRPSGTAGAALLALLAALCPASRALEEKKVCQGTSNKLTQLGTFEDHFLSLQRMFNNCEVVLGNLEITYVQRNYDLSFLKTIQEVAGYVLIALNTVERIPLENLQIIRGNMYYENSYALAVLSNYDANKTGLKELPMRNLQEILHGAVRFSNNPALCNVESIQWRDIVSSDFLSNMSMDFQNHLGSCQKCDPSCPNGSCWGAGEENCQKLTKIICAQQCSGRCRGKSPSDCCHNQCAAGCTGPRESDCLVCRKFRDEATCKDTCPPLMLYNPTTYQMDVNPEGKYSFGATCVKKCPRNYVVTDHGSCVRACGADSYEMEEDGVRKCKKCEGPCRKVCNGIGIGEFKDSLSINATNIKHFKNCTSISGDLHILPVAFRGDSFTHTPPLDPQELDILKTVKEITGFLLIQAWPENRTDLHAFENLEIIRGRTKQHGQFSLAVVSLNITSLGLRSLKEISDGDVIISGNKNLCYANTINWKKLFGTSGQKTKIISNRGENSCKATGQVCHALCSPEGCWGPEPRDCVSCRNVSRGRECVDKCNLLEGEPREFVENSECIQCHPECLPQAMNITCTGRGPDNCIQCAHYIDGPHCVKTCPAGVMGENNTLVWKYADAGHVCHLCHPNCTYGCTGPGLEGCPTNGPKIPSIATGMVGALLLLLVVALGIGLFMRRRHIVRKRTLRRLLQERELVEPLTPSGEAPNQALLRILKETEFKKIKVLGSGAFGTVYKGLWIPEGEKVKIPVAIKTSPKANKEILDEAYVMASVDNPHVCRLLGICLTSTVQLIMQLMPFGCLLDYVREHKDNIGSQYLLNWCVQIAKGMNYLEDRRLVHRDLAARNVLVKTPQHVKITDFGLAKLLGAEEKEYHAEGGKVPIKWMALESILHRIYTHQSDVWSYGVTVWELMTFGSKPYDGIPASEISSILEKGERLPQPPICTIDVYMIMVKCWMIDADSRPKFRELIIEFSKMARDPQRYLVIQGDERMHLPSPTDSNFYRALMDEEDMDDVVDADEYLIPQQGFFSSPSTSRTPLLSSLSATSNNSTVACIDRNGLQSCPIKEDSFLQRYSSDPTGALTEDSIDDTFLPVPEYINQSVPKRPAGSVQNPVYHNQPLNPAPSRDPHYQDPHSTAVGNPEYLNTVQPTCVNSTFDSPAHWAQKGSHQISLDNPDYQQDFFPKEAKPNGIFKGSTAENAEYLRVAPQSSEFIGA
Particulars: BaF3 cells stably transfected with EGFR Δ19Del/T790M, read-out: IC50, growth inhibition, Δ19Del/T790M. As to the method:
as §1, §2, §3, §4, §5

T5 sequence (P00533 with tags, fused parts or gaps DEL746-750): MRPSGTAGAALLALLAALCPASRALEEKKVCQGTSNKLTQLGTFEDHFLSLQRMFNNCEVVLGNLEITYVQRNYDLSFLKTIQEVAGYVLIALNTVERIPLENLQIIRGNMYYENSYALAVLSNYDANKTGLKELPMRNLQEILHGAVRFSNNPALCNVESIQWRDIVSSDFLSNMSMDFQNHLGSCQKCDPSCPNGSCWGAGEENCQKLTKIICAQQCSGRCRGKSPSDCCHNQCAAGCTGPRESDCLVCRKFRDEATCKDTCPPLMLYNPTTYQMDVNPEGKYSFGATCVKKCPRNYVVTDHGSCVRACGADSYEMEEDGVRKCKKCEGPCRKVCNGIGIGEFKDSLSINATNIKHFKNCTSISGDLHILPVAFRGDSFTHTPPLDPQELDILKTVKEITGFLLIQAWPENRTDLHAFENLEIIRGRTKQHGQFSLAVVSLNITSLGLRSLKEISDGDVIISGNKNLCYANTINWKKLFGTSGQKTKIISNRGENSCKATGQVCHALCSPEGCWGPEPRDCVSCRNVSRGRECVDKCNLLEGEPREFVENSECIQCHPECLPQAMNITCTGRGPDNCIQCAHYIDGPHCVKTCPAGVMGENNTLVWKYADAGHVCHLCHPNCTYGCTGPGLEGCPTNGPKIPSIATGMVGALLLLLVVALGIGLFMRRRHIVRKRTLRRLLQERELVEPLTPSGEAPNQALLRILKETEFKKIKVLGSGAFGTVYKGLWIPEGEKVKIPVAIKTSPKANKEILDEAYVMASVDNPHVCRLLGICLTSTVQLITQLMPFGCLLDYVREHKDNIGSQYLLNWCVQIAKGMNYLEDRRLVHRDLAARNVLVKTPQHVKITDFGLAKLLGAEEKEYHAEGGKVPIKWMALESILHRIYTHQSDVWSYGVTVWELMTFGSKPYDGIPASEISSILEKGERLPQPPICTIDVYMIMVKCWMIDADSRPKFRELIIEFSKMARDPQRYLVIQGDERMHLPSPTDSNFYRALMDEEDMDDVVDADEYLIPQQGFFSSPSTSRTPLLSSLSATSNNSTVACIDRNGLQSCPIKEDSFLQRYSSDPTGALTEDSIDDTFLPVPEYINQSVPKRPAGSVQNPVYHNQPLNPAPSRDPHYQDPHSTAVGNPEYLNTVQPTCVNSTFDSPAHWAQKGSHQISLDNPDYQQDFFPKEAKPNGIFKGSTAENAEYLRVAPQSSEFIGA

As for `COc1cc(N2CCOCC2)ccc1Nc1ncc(Br)c(Nc2ccc3nccnc3c2N(C)S(C)(=O)=O)n1` [Compound I-45], the IC50 is at most 50 nM in experiment [1]; at most 50 nM in experiment [2]; 50 to 500 nM in experiment [3]; 50 to 500 nM in experiment [4]; 50 to 500 nM in experiment [5]; 50 to 500 nM in experiment [6].
For `COc1cc(C(=O)N2CCC(N3CCN(C)CC3)CC2)ccc1Nc1ncc(Br)c(Nc2ccc3nccnc3c2N(C)S(C)(=O)=O)n1` [Compound I-48], the IC50 in experiment [1] is at most 50 nM; in experiment [2], at most 50 nM; in experiment [3] it was 50 to 500 nM; in experiment [4], 50 to 500 nM; in experiment [5] it was 50 to 500 nM; in experiment [6], 50 to 500 nM.
With `CN1CCN(S(=O)(=O)c2ccc(Nc3ncc(Br)c(Nc4ccc5nccnc5c4N(C)S(C)(=O)=O)n3)cc2)CC1` [Compound I-49], the IC50 in experiment [1], in experiment [2], in experiment [3], in experiment [4], in experiment [5] and in experiment [6] was 50 to 500 nM throughout.
Consider `CN(c1c(Nc2nc(Nc3ccc(S(=O)(=O)NC4CC4)cc3)ncc2Br)ccc2nccnc12)S(C)(=O)=O` [Compound I-50], for which the IC50 in experiment [1] was 500 to 2500 nM; in experiment [2], 50 to 500 nM; in experiment [3], at most 50 nM; in experiment [4] it was 50 to 500 nM; in experiment [5], 50 to 500 nM; in experiment [6], 50 to 500 nM.
On to `COc1nc(N2CCN(C)CC2)ccc1Nc1ncc(Br)c(Nc2ccc3nccnc3c2N(C)S(C)(=O)=O)n1` [Compound I-55], for which the IC50 in experiment [1], in experiment [2], in experiment [3], in experiment [4], in experiment [5] and in experiment [6] was 50 to 500 nM throughout.
In the case of `CN1CCN(c2ccc(Nc3ncc(Br)c(Nc4ccc5nccnc5c4N(C)S(C)(=O)=O)n3)cn2)CC1` [Compound I-56], the IC50 in experiment [1], in experiment [2], in experiment [3], in experiment [4], in experiment [5] and in experiment [6] was at most 50 nM in each case.
Turning to `Cc1ccc(Nc2ncc(Br)c(Nc3ccc4nccnc4c3N(C)S(C)(=O)=O)n2)cn1` [Compound I-63], the IC50 in experiment [1] was 50 to 500 nM; in experiment [2], 50 to 500 nM; in experiment [3] it was at most 50 nM; in experiment [4] it was 50 to 500 nM; in experiment [5] it was at most 50 nM; in experiment [6], at most 50 nM.
For the compound `CN(c1c(Nc2nc(Nc3ccn(C)n3)ncc2Br)ccc2nccnc12)S(C)(=O)=O` [Compound I-66], the IC50 in experiment [1] was 50 to 500 nM; in experiment [2], 50 to 500 nM; in experiment [3], at most 50 nM; in experiment [4], 50 to 500 nM; in experiment [5] it was 50 to 500 nM; in experiment [6] it was 50 to 500 nM.
For the compound `CN(c1c(Nc2nc(Nc3cnn(C)c3)ncc2Br)ccc2nccnc12)S(C)(=O)=O` [Compound I-67], the IC50 was 50 to 500 nM in experiment [1]; at most 50 nM in experiment [2]; at most 50 nM in experiment [3]; 50 to 500 nM in experiment [4]; at most 50 nM in experiment [5]; at most 50 nM in experiment [6].
`CN(c1c(Nc2nc(NC3CC3)ncc2Br)ccc2nccnc12)S(C)(=O)=O` [Compound I-73]: the IC50 was 500 to 2500 nM in experiment [1]; 500 to 2500 nM in experiment [2]; 50 to 500 nM in experiment [3]; 500 to 2500 nM in experiment [4]; 500 to 2500 nM in experiment [5]; 50 to 500 nM in experiment [6].
As for `CN(c1c(Nc2nc(Nc3cccc(N4CCC(O)CC4)c3)ncc2Br)ccc2nccnc12)S(C)(=O)=O` [Compound I-76], the IC50 in experiment [1] was 50 to 500 nM; in experiment [2] it was at most 50 nM; in experiment [3] it was at most 50 nM; in experiment [4] it was 500 to 2500 nM; in experiment [5], 50 to 500 nM; in experiment [6], 50 to 500 nM.
With `COc1ccc(N2CCC(O)CC2)cc1Nc1ncc(Br)c(Nc2ccc3nccnc3c2N(C)S(C)(=O)=O)n1` [Compound I-77], the IC50 in experiment [1] was at most 50 nM; in experiment [2], at most 50 nM; in experiment [3], at most 50 nM; in experiment [4], 50 to 500 nM; in experiment [5], 50 to 500 nM; in experiment [6], at most 50 nM.
Regarding `CN1CCN(C2CCN(c3cccc(Nc4ncc(Br)c(Nc5ccc6nccnc6c5N(C)S(C)(=O)=O)n4)c3)CC2)CC1` [Compound I-78], the IC50 was 50 to 500 nM in experiment [1]; at most 50 nM in experiment [2]; at most 50 nM in experiment [3]; 50 to 500 nM in experiment [4]; 50 to 500 nM in experiment [5]; 50 to 500 nM in experiment [6].
As for `CN1CCN(C(=O)c2cccc(Nc3ncc(Br)c(Nc4ccc5nccnc5c4N(C)S(C)(=O)=O)n3)c2)CC1` [Compound I-80], the IC50 is 500 to 2500 nM in experiment [1]; 50 to 500 nM in experiment [2]; at most 50 nM in experiment [3]; 50 to 500 nM in experiment [4]; 50 to 500 nM in experiment [5]; 50 to 500 nM in experiment [6].
For the compound `COc1ccc(C(=O)N2CCN(C)CC2)cc1Nc1ncc(Br)c(Nc2ccc3nccnc3c2N(C)S(C)(=O)=O)n1` [Compound I-81], the IC50 in experiment [1] lay in the range of 500 to 2500 nM; in experiment [2], 50 to 500 nM; in experiment [3], 50 to 500 nM; in experiment [4], 500 to 2500 nM; in experiment [5], 50 to 500 nM; in experiment [6], 50 to 500 nM.
Turning to `CN1CCN(Cc2cc(Nc3ncc(Br)c(Nc4ccc5nccnc5c4N(C)S(C)(=O)=O)n3)cc(C(F)(F)F)c2)CC1` [Compound I-82], the IC50 in experiment [1] is 50 to 500 nM; in experiment [2], 50 to 500 nM; in experiment [3], at most 50 nM; in experiment [4], 50 to 500 nM; in experiment [5] it was 50 to 500 nM; in experiment [6] it was 50 to 500 nM.
Consider `COc1ccc(CN2CCN(C)CC2)cc1Nc1ncc(Br)c(Nc2ccc3nccnc3c2N(C)S(C)(=O)=O)n1` [Compound I-83], for which the IC50 was in the range of 500 to 2500 nM in experiment [1]; 500 to 2500 nM in experiment [2]; 50 to 500 nM in experiment [3]; 50 to 500 nM in experiment [4]; 50 to 500 nM in experiment [5]; 500 to 2500 nM in experiment [6].
Turning to `CN1CCN(Cc2cccc(Nc3ncc(Br)c(Nc4ccc5nccnc5c4N(C)S(C)(=O)=O)n3)c2)CC1` [Compound I-84], the IC50 is 50 to 500 nM in experiment [1]; 50 to 500 nM in experiment [2]; at most 50 nM in experiment [3]; at most 50 nM in experiment [4]; 50 to 500 nM in experiment [5]; 50 to 500 nM in experiment [6].
Regarding `COc1ccc(NC(=O)CN(C)C)cc1Nc1ncc(Br)c(Nc2ccc3nccnc3c2N(C)S(C)(=O)=O)n1` [Compound I-85], the IC50 in experiment [1], in experiment [2], in experiment [3], in experiment [4], in experiment [5] and in experiment [6] was 50 to 500 nM each time.
In the case of `CN1CCc2cc(F)c(Nc3ncc(Br)c(Nc4ccc5nccnc5c4N(C)S(C)(=O)=O)n3)cc2C1` [Compound I-87], the IC50 was at most 50 nM in experiment [1]; at most 50 nM in experiment [2]; 50 to 500 nM in experiment [3]; at most 50 nM in experiment [4]; at most 50 nM in experiment [5]; 50 to 500 nM in experiment [6].
As for `COc1cc2c(cc1Nc1ncc(Br)c(Nc3ccc4nccnc4c3N(C)S(C)(=O)=O)n1)CN(C)CC2` [Compound I-89], the IC50 in experiment [1] is 500 to 2500 nM; in experiment [2] it was 50 to 500 nM; in experiment [3], 50 to 500 nM; in experiment [4], 50 to 500 nM; in experiment [5], 500 to 2500 nM; in experiment [6], 50 to 500 nM.
